The NIST ThermoML archive (doi:10.1021/je060271a)

Details: 303.15 K, Liquid, Vibrating tube method

CCCCCCCC(=O)OCC(COC(=O)CCCCCCC)(COC(=O)CCCCCCC)COC(=O)CCCCCCC [pentaerythritol tetraoctanoate]
Details | mass density [kg/m3]
17535 kPa | 966
17571 kPa | 965.8
17601 kPa | 966
17637 kPa | 966
17674 kPa | 966.1
17705 kPa | 966
17742 kPa | 966.1
17773 kPa | 966.1
17810 kPa | 966
17848 kPa | 966.2
17879 kPa | 966.2
17916 kPa | 966.1
17948 kPa | 966.1
17985 kPa | 966.2
18024 kPa | 966.2
18056 kPa | 966
18095 kPa | 966.2
18133 kPa | 966.3
18165 kPa | 966.2
18205 kPa | 966.3
18238 kPa | 966.4
18278 kPa | 966.3
18311 kPa | 966.4
18351 kPa | 966.5
18391 kPa | 966.5
18424 kPa | 966.4
18465 kPa | 966.4
18499 kPa | 966.5
18540 kPa | 966.5
18573 kPa | 966.5
18614 kPa | 966.5
18656 kPa | 966.5
18690 kPa | 966.5
18732 kPa | 966.6
18768 kPa | 966.6
18810 kPa | 966.7
18851 kPa | 966.7
18886 kPa | 966.8
18930 kPa | 966.6
18966 kPa | 966.7
19009 kPa | 966.9
19045 kPa | 966.8
19087 kPa | 966.7
19131 kPa | 966.9
19168 kPa | 966.8
19211 kPa | 966.9
19248 kPa | 967
19292 kPa | 967.1
19338 kPa | 966.9
19375 kPa | 966.9
19420 kPa | 966.9
19458 kPa | 967
19502 kPa | 967
19548 kPa | 967.1
19586 kPa | 967.1
19632 kPa | 967.1
19677 kPa | 967.1
19715 kPa | 967.1
19762 kPa | 967.2
19802 kPa | 967.2
19851 kPa | 967.3
19890 kPa | 967.2
19938 kPa | 967.3
19986 kPa | 967.3
20025 kPa | 967.4
20074 kPa | 967.3
20115 kPa | 967.4
20163 kPa | 967.4
20203 kPa | 967.4
20252 kPa | 967.5
20302 kPa | 967.4
20344 kPa | 967.4
20397 kPa | 967.5
20440 kPa | 967.5
20489 kPa | 967.5
20532 kPa | 967.5
20582 kPa | 967.6
20632 kPa | 967.7
20674 kPa | 967.7
20724 kPa | 967.7
20766 kPa | 967.8
20817 kPa | 967.8
20872 kPa | 967.7
20948 kPa | 968
21030 kPa | 968
21112 kPa | 968
21144 kPa | 968
21170 kPa | 968
21194 kPa | 968
21222 kPa | 968
21244 kPa | 967.9
21272 kPa | 968
21299 kPa | 968
21322 kPa | 968.1
21350 kPa | 968
21374 kPa | 968
21402 kPa | 968.1
21425 kPa | 968.1
21454 kPa | 968.2
21478 kPa | 968.1
21506 kPa | 968.1
21533 kPa | 968.2
21557 kPa | 968.2
21585 kPa | 968.2
21610 kPa | 968.2
21636 kPa | 968.2
21666 kPa | 968.2
21690 kPa | 968.2
21721 kPa | 968.4
21743 kPa | 968.2
21775 kPa | 968.2
21798 kPa | 968.3
21827 kPa | 968.3
21850 kPa | 968.4
21880 kPa | 968.3
21909 kPa | 968.3
21933 kPa | 968.4
21964 kPa | 968.4
21988 kPa | 968.3
22017 kPa | 968.4
22049 kPa | 968.5
22071 kPa | 968.4
22101 kPa | 968.5
22126 kPa | 968.5
22158 kPa | 968.6
22186 kPa | 968.5
22214 kPa | 968.5
22241 kPa | 968.7
22266 kPa | 968.6
22297 kPa | 968.6
22328 kPa | 968.6
22355 kPa | 968.7
22385 kPa | 968.7
22411 kPa | 968.7
22441 kPa | 968.7
22473 kPa | 968.8
22499 kPa | 968.6
22531 kPa | 968.8
22556 kPa | 968.7
22588 kPa | 968.8
22614 kPa | 968.8
22647 kPa | 968.8
22677 kPa | 968.8
22703 kPa | 968.9
22736 kPa | 968.8
22762 kPa | 968.9
22795 kPa | 968.9
22823 kPa | 968.9
22855 kPa | 969
22884 kPa | 969
22910 kPa | 968.9
22944 kPa | 968.9
22976 kPa | 969
23001 kPa | 969
23032 kPa | 968.9
23066 kPa | 969.2
23092 kPa | 969
23125 kPa | 969.1
23153 kPa | 968.9
23185 kPa | 969.2
23220 kPa | 969.1
23246 kPa | 969.2
23276 kPa | 969.1
23312 kPa | 969.2
23339 kPa | 969.2
23371 kPa | 969.2
23405 kPa | 969.2
23434 kPa | 969.3
23465 kPa | 969.3
23500 kPa | 969.2
23527 kPa | 969.3
23561 kPa | 969.3
23590 kPa | 969.3
23626 kPa | 969.4
23656 kPa | 969.3
23690 kPa | 969.4
23721 kPa | 969.3
23753 kPa | 969.5
23781 kPa | 969.4
23817 kPa | 969.5
23853 kPa | 969.5
23880 kPa | 969.5
23917 kPa | 969.4
23950 kPa | 969.5
23980 kPa | 969.6
24016 kPa | 969.5
24045 kPa | 969.7
24080 kPa | 969.5
24110 kPa | 969.7
24146 kPa | 969.6
24184 kPa | 969.6
24212 kPa | 969.6
24254 kPa | 969.8
24280 kPa | 969.7
24317 kPa | 969.7
24348 kPa | 969.8
24384 kPa | 969.8
24420 kPa | 969.7
24450 kPa | 969.8
24488 kPa | 969.9
24520 kPa | 969.9
24557 kPa | 969.8
24589 kPa | 969.8
24627 kPa | 969.8
24658 kPa | 969.9
24697 kPa | 969.9
24728 kPa | 969.8
24766 kPa | 970
24804 kPa | 969.9
24836 kPa | 969.9
24874 kPa | 970.1
24906 kPa | 970.1
24945 kPa | 970.2
24978 kPa | 970.1
25016 kPa | 970.1
25048 kPa | 970.2
25087 kPa | 970.1
25126 kPa | 970.1
25159 kPa | 970.1
25199 kPa | 970.2
25232 kPa | 970.1
25272 kPa | 970.2
25310 kPa | 970.3
25343 kPa | 970.2
25382 kPa | 970.2
25416 kPa | 970.2
25457 kPa | 970.3
25491 kPa | 970.4
25532 kPa | 970.3
25575 kPa | 970.3
25611 kPa | 970.5
25653 kPa | 970.3
25689 kPa | 970.7
25726 kPa | 970.3
25768 kPa | 970.5
25804 kPa | 970.5
25845 kPa | 970.5
25882 kPa | 970.6
25929 kPa | 970.6
25969 kPa | 970.5
26006 kPa | 970.5
26051 kPa | 970.7
26084 kPa | 970.7
26119 kPa | 970.7
26164 kPa | 970.7
26203 kPa | 970.7
26241 kPa | 970.8
26285 kPa | 970.8
26318 kPa | 970.7
26384 kPa | 970.8
26413 kPa | 970.8
26446 kPa | 970.8
26474 kPa | 970.9
26520 kPa | 970.9
26558 kPa | 971
26597 kPa | 971
26642 kPa | 970.9
26681 kPa | 971.1
26720 kPa | 971
26767 kPa | 971.1
26806 kPa | 971.1
26846 kPa | 971.1
26893 kPa | 971.1
26934 kPa | 971.2
26974 kPa | 971
27015 kPa | 971.2
27064 kPa | 971.2
27104 kPa | 971.2
27153 kPa | 971.2
27193 kPa | 971.2
27234 kPa | 971.3
27275 kPa | 971.4
27317 kPa | 971.3
27366 kPa | 971.3
27407 kPa | 971.4
27450 kPa | 971.4
27500 kPa | 971.4
27543 kPa | 971.4
27585 kPa | 971.6
27636 kPa | 971.4
27678 kPa | 971.4
27720 kPa | 971.6
27763 kPa | 971.5
27814 kPa | 971.6
27856 kPa | 971.5
27907 kPa | 971.5
27950 kPa | 971.7
27993 kPa | 971.7
28045 kPa | 971.7
28089 kPa | 971.7
28134 kPa | 971.8
28178 kPa | 971.9
28230 kPa | 971.9
28273 kPa | 971.8
28325 kPa | 972
28369 kPa | 971.9
